Experimental findings from patent US9464141B2, “Anti-ETBR antibodies and immunoconjugates” (Genentech, Inc., priority 2012, dated 2016) are described below.

Starred links: 1 amine or outer side, 2 acyl side, 3 side chain; linkers in the order of their positions; H or OH if unused. Non-standard residues stand in square brackets, D forms with d. Residues, ends and D or L forms follow the SMILES beside them. *: point of attachment. Dolaproine = CO[C@@H]([C@@H]1CCCN1)[C@@H](C)C(=O)O; Hexanoyl(6-maleimido) = O=C1C=CC(=O)N1CCCCCC(=O)*; Dil = CC[C@H](C)[C@H](NC)[C@@H](CC(=O)O)OC; PABC = O=C(OCc1ccc(N[*:1])cc1)[*:2]; X1 = C[C@@H](N*)[C@@H](O)c1ccccc1; Cit = NC(=O)NCCC[C@H](N)C(=O)O; NMeV = CN[C@H](C(=O)O)C(C)C

Holding throughout (experiment): In vitro cell proliferation, CellTiter-Glo, 5 days
Assay type in all cases: cell-based
Common to all, as to conditions: free linker-drug (without antibody)
(ATP-based viability assays read luminescence as a measure of living cells.)

The subject of assay [1] is Parental UACC-257X2.2 cells. The procedure: (§1) In vitro cell proliferation of the cell lines in the presence of the immunoconjugates was assessed. Cells were plated at 1,500 cells per well in 50 μL of normal growth medium in 96-well clear-bottom plates. Twenty-four hours later, an additional 50 μL of culture medium with serial dilutions of immunoconjugates (ch5E9-vc-MMAE or control anti-gD-vc-MMAE) were added to triplicate wells. Five days later, cell survival was determined using CellTiter-Glo Luminescent Cell Viability Reagent (G7572, Promega Corporation, Madison, Wis.) using an EnVision 2101 Mutilabel Reader (Perkin-Elmer, Waltham, Mass.).

Assay [2] deals with In vivo-derived resistant UACC-257X2.2 cells. The procedure: For resistance developed in vivo, NCr nude mice (Taconic, Hudson, N.Y.) were inoculated subcutaneously in the dorsal right flank with 5 million UACC-257X2.2 cells in HBSS with Matrigel. UACC-257X2.2 cells are derived from UACC-257 cells (National Cancer Institute) and optimized for growth in vivo as follows. UACC-257 cells were injected subcutaneously in the right flank of female NCr nude mice to induce tumor growth. One tumor was harvested and grown in vitro (referred to as UACC-257X1.2 cell line). The UACC-257X1.2 line was injected again subcutaneously in the right flank of female NCr nude mice to improve the growth of the cell line in vivo. A tumor from the second injection round was collected and again adapted for in vitro growth to generate UACC-257X2.2.
Ten mice inoculated with UACC-257X2.2 cells were dosed with 3 mg/kg hu5E9.v1-MC-vc-PAB-MMAE intravenously on day 0. […]
In vitro cell proliferation of the cell lines in the presence of the immunoconjugates was assessed. […] Five days later, cell survival was determined using CellTiter-Glo Luminescent Cell Viability Reagent (G7572, Promega Corporation, Madison, Wis.) using an EnVision 2101 Mutilabel Reader (Perkin-Elmer, Waltham, Mass.).

The subject of assay [3] is In vitro-derived resistant UACC-257X2.2 cells. The procedure:
For resistance developed in vitro, UACC-257X2.2 cells were adapted to increasing concentrations of anti-ETBR-vc-MMAE in culture dishes over the course of two months.
as §1

For the molecule `CC[C@H](C)[C@@H]([C@@H](CC(=O)N1CCC[C@H]1[C@H](OC)[C@@H](C)C(=O)N[C@H](C)[C@@H](O)c1ccccc1)OC)N(C)C(=O)[C@@H](NC(=O)[C@H](C(C)C)N(C)C(=O)OCc1ccc(NC(=O)[C@H](CCCNC(N)=O)NC(=O)[C@@H](NC(=O)CCCCCN2C(=O)C=CC2=O)C(C)C)cc1)C(C)C` [free MC-vc-PAB-MMAE] ({Hexanoyl(6-maleimido)}-V[Cit][PABC][NMeV]V[Dil][Dolaproine]-X1), the values for the EC50 in assay [1], in assay [2] and in assay [3] were 0.28 nM, 0.77 nM and 3.5 nM, respectively.
